The text below walks through data of patent US9540391B2, “Isomannide derivatives as inhibitors of soluble epoxide hydrolase” (SANOFI, priority 2013, dated 2017).

The target in this test is T1, recombinant sEH (Homo sapiens, UniProt P34913).
T1 construct: made in house; host or cells: Sf9 insect cells
T1 sequence (P34913 1-555): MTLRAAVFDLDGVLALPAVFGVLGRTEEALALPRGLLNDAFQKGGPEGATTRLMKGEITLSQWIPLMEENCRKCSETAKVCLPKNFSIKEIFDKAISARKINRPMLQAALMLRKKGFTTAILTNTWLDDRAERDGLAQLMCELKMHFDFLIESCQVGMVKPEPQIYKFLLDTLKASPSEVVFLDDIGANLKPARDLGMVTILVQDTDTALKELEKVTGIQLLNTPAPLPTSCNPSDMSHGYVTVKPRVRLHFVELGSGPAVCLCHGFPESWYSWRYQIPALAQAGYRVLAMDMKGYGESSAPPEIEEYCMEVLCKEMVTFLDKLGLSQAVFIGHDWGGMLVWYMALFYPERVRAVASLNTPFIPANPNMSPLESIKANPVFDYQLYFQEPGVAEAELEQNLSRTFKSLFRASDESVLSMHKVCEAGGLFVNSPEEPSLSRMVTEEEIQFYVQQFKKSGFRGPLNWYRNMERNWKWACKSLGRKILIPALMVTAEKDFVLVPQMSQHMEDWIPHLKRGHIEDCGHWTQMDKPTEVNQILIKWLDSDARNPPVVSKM
Put plainly: biochemical screening assay for inhibition of soluble epoxide hydrolase (fluorometric, Phome substrate). An outline of the steps:
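Reading fluorescence before substrate addition and after completion corrected for autofluorescence. Reaction: 5 μM Phome, 2 nM recombinant human sEH (Sf9-expressed), compound 0.0001–10 μM, 25 mM Hepes with 0.01% albumin, 15 min pre-incubation then 60 min at 30 °C; IC50 derived from % inhibition.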

Counter-ions that a name gives are not always drawn.

With `Cc1cccc(CNC(=O)N[C@H]2CO[C@H]3[C@@H]2OC[C@@H]3C#Cc2ccsc2)c1` [Example 305, 1-(3-Methyl-benzyl)-3-((3S,3aR,6S,6aR)-6-thiophen-3-ylethynyl-hexahydro-furo[3,2-b]furan-3-yl)-urea], the IC50 (as a rule, the concentration that inhibits the measured activity by half) came out at 0.243 µM.
Regarding `O=C(Nc1ccc(F)cc1)N[C@H]1CO[C@H]2[C@@H]1OC[C@@H]2C#Cc1ccsc1` [Example 306, 1-(4-Fluoro-phenyl)-3-((3S,3aR,6S,6aR)-6-thiophen-3-ylethynyl-hexahydro-furo[3,2-b]furan-3-yl)-urea], the IC50 is 0.192 µM.
As for `O=C(Nc1ccccc1-c1ccccc1)N[C@H]1CO[C@H]2[C@@H]1OC[C@@H]2C#Cc1ccsc1` [Example 307, 1-Biphenyl-2-yl-3-((3S,3aR,6S,6aR)-6-thiophen-3-ylethynyl-hexahydro-furo[3,2-b]furan-3-yl)-urea], the IC50 is 0.059 µM.
With `O=C(Nc1ccc(C(F)(F)F)cc1)NC1COC2C(C#Cc3ccsc3)COC12` [Example 308, 1-((3S,3aR,6S,6aR)-6-Thio-phen-3-ylethynyl-hexahydro-furo[3,2-b]furan-3-yl)-3-(4-trifluoromethyl-phenyl)-urea], the IC50 was determined as 0.048 µM.
For `COC(=O)c1cccc(NC(=O)NC2COC3C(C#Cc4ccsc4)COC23)c1` [Example 309, 3-[3-((3S,3aR,6S,6aR)-6-Thio-phen-3-ylethynyl-hexahydro-furo[3,2-b]furan-3-yl)-ureido]-benzoic acid methyl ester] the value was 0.016 µM; for `O=C(Nc1ccc2c(c1)CCC2)N[C@H]1CO[C@H]2[C@@H]1OC[C@@H]2C#Cc1ccsc1` [Example 310, 1-Indan-5-yl-3-((3S,3aR,6S,6aR)-6-thiophen-3-ylethynyl-hexahydro-furo[3,2-b]furan-3-yl)-urea], 0.073 µM; for `O=C(Nc1cccc(F)c1)N[C@H]1CO[C@H]2[C@@H]1OC[C@@H]2C#Cc1ccsc1` [Example 311, 1-(3-Fluoro-phenyl)-3-((3S,3aR,6S,6aR)-6-thiophen-3-ylethynyl-hexahydro-furo[3,2-b]furan-3-yl)-urea], 0.146 µM.
`CSc1cccc(NC(=O)N[C@H]2CO[C@H]3[C@@H]2OC[C@@H]3C#Cc2ccsc2)c1` [Example 312, 1-(3-Methylsulfanyl-phenyl)-3-((3S,3aR,6S,6aR)-6-thiophen-3-ylethynyl-hexahydro-furo[3,2-b]furan-3-yl)-urea]: the IC50 came out at 0.107 µM.
The result for `O=C(NCCc1cccs1)N[C@H]1CO[C@H]2[C@@H]1OC[C@@H]2C#Cc1ccsc1` [Example 313, 1-(2-Thiophen-2-yl-ethyl)-3-((3S,3aR,6S,6aR)-6-thiophen-3-ylethynyl-hexahydro-furo[3,2-b]furan-3-yl)-urea] reads 0.056 µM; that for `O=C(NCCc1ccccc1)N[C@H]1CO[C@H]2[C@@H]1OC[C@@H]2C#Cc1ccsc1` [Example 314, 1-Phenethyl-3-((3S,3aR,6S,-6aR)-6-thiophen-3-ylethynyl-hexahydro-furo[3,2-b]furan-3-yl)-urea], 0.033 µM; that for `O=C(Nc1ccc(OC(F)(F)F)cc1)N[C@H]1CO[C@H]2[C@@H]1OC[C@@H]2C#Cc1ccsc1` [Example 315, 1-((3S,3aR,6S,6aR)-6-Thiophen-3-ylethynyl-hexahydro-furo[3,2-b]furan-3-yl)-3-(4-trifluoromethoxy-phenyl)-urea], 0.015 µM.
For the compound `O=C(Nc1cccc(C(F)(F)F)c1)N[C@H]1CO[C@H]2[C@@H]1OC[C@@H]2C#Cc1ccsc1` [Example 316, 1-((3S,3aR,6S,6aR)-6-Thiophen-3-ylethynyl-hexahydro-furo[3,2-b]furan-3-yl)-3-(3-trifluoromethyl-phenyl)-urea], the IC50 was found to be 0.087 µM.
Regarding `O=C(NC1CCCCC1)N[C@H]1CO[C@H]2[C@@H]1OC[C@@H]2/C=C\c1ccc2c(c1)OCO2` [Example 317, 1-[(3S,3aR,6S,6aR)-6-((Z)-2-Benzo[1,3]dioxol-5-yl-vinyl)-hexahydro-furo[3,2-b]furan-3-yl]-3-cyclohexyl-urea], the IC50 stood at 0.003 µM.
With `O=C(Nc1ccc2c(c1)OCCO2)N[C@H]1CO[C@H]2[C@@H]1OC[C@@H]2/C=C\c1ccccc1` [Example 318, 1-(2,3-Dihydro-benzo[1,4]dioxin-6-yl)-3-[(3S,3aR,6S,6aR)-6-((Z)-styryl)-hexahydro-furo[3,2-b]furan-3-yl]-urea], the half-maximal inhibitory concentration (IC50) stood at 0.227 µM.
As for `O=C(NC1CCCCC1)N[C@H]1CO[C@H]2[C@@H]1OC[C@@H]2/C=C\c1ccccc1` [Example 319, 1-Cyclohexyl-3-[(3S,3aR,6S,6aR)-6-((Z)-styryl)-hexahydro-furo[3,2-b]furan-3-yl]-urea], the IC50 was 0.017 µM.
As for `CCCCOc1ccc(NC(=O)NC2COC3C(C=Cc4ccccc4)COC23)cc1` [Example 320, 1-(4-Butoxy-phenyl)-3-[(3S,3aR,6R)-6-((S)-(Z)-styryl)-hexahydro-furo[3,2-b]furan-3-yl]-urea], the IC50 turned out to be 0.14 µM.
In the case of `COc1cc(NC(=O)NC2COC3C(C=Cc4ccccc4)COC23)cc(OC)c1` [Example 321, 1-(3,5-Dimethoxy-phenyl)-3-[(3S,3aR,6R)-6-((S)-(Z)-styryl)-hexa-hydro-furo[3,2-b]furan-3-yl]-urea], the IC50 came to 0.066 µM.
For `Cc1cc(C)cc(NC(=O)NC2COC3C(C=Cc4ccccc4)COC23)c1` [Example 322, 1-(3,5-Dimethyl-phenyl)-3-[(3S,3aR,6R)-6-((S)-(Z)-styryl)-hexa-hydro-furo[3,2-b]furan-3-yl]-urea], the IC50 stood at 0.007 µM.
For the compound `O=C(Nc1ccccc1)NC1COC2C(C=Cc3ccccc3)COC12` [Example 323, 1-Phenyl-3-[(3S,3aR,6R)-6-((S)-(Z)-styryl)-hexahydro-furo[3,2-b]furan-3-yl]-urea], the IC50 was 0.19 µM.
Take `O=C(Nc1ccc(OCc2ccccc2)cc1)NC1COC2C(C=Cc3ccccc3)COC12` [Example 324, 1-(4-Benzyloxy-phenyl)-3-[(3S,3aR,6R)-6-((S)-(Z)-styryl)-hexa-hydro-furo[3,2-b]furan-3-yl]-urea]: the IC50 was 0.081 µM.
Take `O=C(NCc1ccc(F)cc1)NC1COC2C(C=Cc3ccccc3)COC12` [Example 325, 1-(4-Fluoro-benzyl)-3-[(3S,3aR,6R)-6-((S)-(Z)-styryl)-hexahydro-furo[3,2-b]furan-3-yl]-urea]: the IC50 stood at 0.075 µM.
For `O=C(Nc1ccc(Cl)c(Cl)c1)NC1COC2C(C=Cc3ccccc3)COC12` [Example 326, 1-(3,4-Dichloro-phenyl)-3-[(3S,3aR,6R)-6-((S)-(Z)-styryl)-hexa-hydro-furo[3,2-b]furan-3-yl]-urea] the value was 0.027 µM.
Take `Cc1cccc(CNC(=O)N[C@H]2CO[C@@H]3[C@@H]2OC[C@H]3/C=C\c2ccccc2)c1` [Example 327, 1-(3-Methyl-benzyl)-3-[(3S,3aR,6R)-6-((S)-(Z)-styryl)-hexahydro-furo[3,2-b]furan-3-yl]-urea]: the IC50 was determined as 0.098 µM.
The result for `O=C(Nc1ccc(F)cc1)NC1COC2C(C=Cc3ccccc3)COC12` [Example 328, 1-(4-Fluoro-phenyl)-3-[(3S,3aR,6R)-6-((S)-(Z)-styryl)-hexahydro-furo[3,2-b]furan-3-yl]-urea] reads 0.098 µM; that for `O=C(Nc1cccc(F)c1)N[C@H]1CO[C@H]2[C@@H]1OC[C@@H]2/C=C\c1ccccc1` [Example 329, 1-(3-Fluoro-phenyl)-3-[(3S,3aR,6S,6aR)-6-((Z)-styryl)-hexahydro-furo[3,2-b]furan-3-yl]-urea], 0.095 µM.
Consider `O=C(NCCc1cccs1)N[C@H]1CO[C@H]2[C@@H]1OC[C@@H]2/C=C\c1ccccc1` [Example 330, 1-[(3S,3aR,6S,6aR)-6-((Z)-Styryl)-hexahydro-furo[3,2-b]furan-3-yl]-3-(2-thiophen-2-yl-ethyl)-urea], for which the IC50 was 0.069 µM.
Take `O=C(NCCc1ccccc1)N[C@H]1CO[C@H]2[C@@H]1OC[C@@H]2/C=C\c1ccccc1` [Example 331, 1-Phenethyl-3-[(3S,3aR,6S,6aR)-6-((Z)-styryl)-hexahydro-furo[3,2-b]furan-3-yl]-urea]: the IC50 was found to be 0.018 µM.
For the compound `O=C(Nc1ccc(OC(F)(F)F)cc1)N[C@H]1CO[C@H]2[C@@H]1OC[C@@H]2/C=C\c1ccccc1` [Example 332, 1-[(3S,3aR,6S,6aR)-6-((Z)-Styryl)-hexahydro-furo[3,2-b]furan-3-yl]-3-(4-trifluoromethoxy-phenyl)-urea], the IC50 worked out at 0.011 µM.
Regarding `O=C(Nc1cccc(C(F)(F)F)c1)N[C@H]1CO[C@H]2[C@@H]1OC[C@@H]2/C=C\c1ccccc1` [Example 333, 1-[(3S,3aR,6S,6aR)-6-((Z)-Styryl)-hexahydro-furo[3,2-b]furan-3-yl]-3-(3-trifluoromethyl-phenyl)-urea], the IC50 worked out at 0.044 µM.
Turning to `O=C(NC1CCCCC1)N[C@H]1CO[C@H]2[C@@H]1OC[C@@H]2/C=C\c1ccccn1` [Example 334, 1-Cyclohexyl-3-[(3S,3aR,6S,6aR)-6-((Z)-2-pyridin-2-yl-vinyl)-hexahydro-furo[3,2-b]furan-3-yl]-urea; trifluoroacetate], the IC50 was 0.159 µM.
`COc1cc(NC(=O)NC2COC3C(C=Cc4ccsc4)COC23)cc(OC)c1` [Example 335, 1-(3,5-Dimethoxy-phenyl)-3-[(3S,3aR,-6S,6aR)-6-((Z)-2-thiophen-3-yl-vinyl)-hexahydro-furo[3,2-b]furan-3-yl]-urea]: the IC50 came to 0.665 µM.
